Results taken from article PMC10455244, “Alpha-Mangostin: A Potent Inhibitor of TRPV3 and Pro-Inflammatory Cytokine Secretion in Keratinocytes” (International Journal of Molecular Sciences, 2023).

How the values were obtained:
[1] = biological target: T1, TRPA1 (Homo sapiens, UniProt O75762); assay: Whole-cell patch-clamp, AITC-activated TRPA1 current in transfected HEK 293T cells; assay type: cell-based; details: 100 µM AITC
T1 construct: host or cells: HEK 293T (transient transfection)
Method: Next, we examined the impact of alpha-mangostin on other TRP channels. TRPV4- and TRPA1 trasfected HEK 293T were activated using 300 nM GSK-1016790A (GSK101) and 100 µM allyl isothiocyanate (AITC), respectively. […] The dose–response curves were obtained by applying various concentrations of alpha-mangostin (Figure 2C).
Figure 2 Alpha-mangostin (α-MG) inhibited the TRPV3 current more effectively than other TRP channels. (A) Representative I–V curves from whole-cell recordings illustrate the inhibitory effect of 0.3 µM alpha-mangostin on TRPV4 and TRPA1 channels (GSK101: GSK-1016790A, a TRPV4 agonist; RR: ruthenium red, a TRP inhibitor; AITC: allyl isothiocyanate, a TRPA1 agonist; A967: A-967079, a TRPA1 inhibitor). Currents were elicited with ramp pulses from −100 to +100 mV over 1 s, which were repetitively applied every 20 s; the holding potential was set at 0 mV. (B) Summary of the inhibition percentage after 0.3 µM alpha-mangostin treatment at −100 mV. […]
In the whole-cell configuration, voltage ramps from −100 to +100 mV over 1 s were applied every 20 s and the holding potential was set at 0 mV. Sampling at 10 kHz and low-pass filtering at 5 kHz (w-c) were applied for all recorded currents. Recorded data were analyzed using Clampfit ver. […]

[2] = test system: IL-8; assay: ELISA, carvacrol-induced IL-8 release in NHEK; assay type: cell-based, human; details: 1 µM with 300 µM carvacrol, 24 h
Excerpt: Constitutive activation of TRPV3 due to continuous stimulation or the presence of Olmsted mutations causes noticeable skin inflammation due to the increased secretion of pro-inflammatory cytokines from the keratinocytes. Besides, in atopic dermatitis (AD), cytokine release from keratinocytes contributes to the inflammatory environment, which drives many characteristic AD symptoms. Therefore, we determined the effect of TRPV3 activation on cytokine release instead of TRPV3 expression and evaluated whether alpha-mangostin suppressed TRPV3-mediated cytokine secretion in normal human keratinocytes. The levels of secreted cytokines (interleukin (IL)-6, IL-8, and tumor necrosis factor-alpha (TNF-α)) were measured using enzyme-linked Immunosorbent assay (ELISA) kits due to their high sensitivity and quantitation ability. The cells were induced with 300 µM carvacrol, with or without 1 µM alpha-mangostin, and 10 µM 74a.
Figure 5 Alpha-mangostin (α-MG) inhibited carvacrol-induced cytokine release in NHEK cells and rescued carvacrol-induced cell death. (A) Alpha-mangostin inhibited the carvacrol-induced release of IL-8 and IL-6 in NHEK. Cells were induced by 300 µM carvacrol with or without either 1 µM alpha-mangostin or 10 µM 74a for 24 h before the ELISA assay. (B) Alpha-mangostin reduced cell death caused by carvacrol in human keratinocytes. […]

T1 sequence (O75762 whole entry, species assumed): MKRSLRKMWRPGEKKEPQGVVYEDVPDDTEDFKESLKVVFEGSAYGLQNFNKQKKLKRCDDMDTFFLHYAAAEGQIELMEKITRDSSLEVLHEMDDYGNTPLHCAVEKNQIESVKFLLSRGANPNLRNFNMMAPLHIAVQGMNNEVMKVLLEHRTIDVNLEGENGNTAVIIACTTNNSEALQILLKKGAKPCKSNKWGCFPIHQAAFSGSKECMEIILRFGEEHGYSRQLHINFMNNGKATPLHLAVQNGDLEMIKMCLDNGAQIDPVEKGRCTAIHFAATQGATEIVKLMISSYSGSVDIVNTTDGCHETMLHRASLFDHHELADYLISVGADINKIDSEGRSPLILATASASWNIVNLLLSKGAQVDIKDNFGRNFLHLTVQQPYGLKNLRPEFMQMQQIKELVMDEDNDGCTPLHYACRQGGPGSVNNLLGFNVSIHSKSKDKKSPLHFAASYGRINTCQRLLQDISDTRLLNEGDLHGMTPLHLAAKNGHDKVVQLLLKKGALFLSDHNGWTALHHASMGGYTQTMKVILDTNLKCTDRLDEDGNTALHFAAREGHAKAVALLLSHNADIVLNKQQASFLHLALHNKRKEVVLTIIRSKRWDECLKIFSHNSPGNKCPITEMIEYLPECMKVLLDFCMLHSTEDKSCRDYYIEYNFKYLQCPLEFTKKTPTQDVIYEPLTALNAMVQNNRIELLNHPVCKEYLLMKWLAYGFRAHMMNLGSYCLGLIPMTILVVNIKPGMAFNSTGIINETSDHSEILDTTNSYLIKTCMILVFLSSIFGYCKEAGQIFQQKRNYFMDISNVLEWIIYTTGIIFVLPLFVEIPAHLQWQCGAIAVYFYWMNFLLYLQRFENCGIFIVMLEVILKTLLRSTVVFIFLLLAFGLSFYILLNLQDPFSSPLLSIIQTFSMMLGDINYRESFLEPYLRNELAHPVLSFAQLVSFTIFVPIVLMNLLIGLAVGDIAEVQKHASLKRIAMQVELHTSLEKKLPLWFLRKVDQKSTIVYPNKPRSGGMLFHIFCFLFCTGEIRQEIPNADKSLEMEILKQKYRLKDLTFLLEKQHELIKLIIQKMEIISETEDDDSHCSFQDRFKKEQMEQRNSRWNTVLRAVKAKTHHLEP

SMILES: COc1c(O)cc2oc3cc(O)c(CC=C(C)C)c(O)c3c(=O)c2c1CC=C(C)C [Alpha-mangostin]
- inhibition at 0.3 µM ([1]; HEK-293T, 0.3 µM, −100 mV, read-out: Inhibition percentage of TRPA1 current): 24.8%
- IC50 ([1]; transfected HEK 293T, read-out: IC50, inhibition of TRPA1 current): 5.09 ± 2.21 µM
- Effect on IL-8 levels [2]: drastically attenuated
